Source: publication PMC10700596 (Nature Communications, 2023)
Values joined by “and” are separate entries in the source; they are usually repeats but may differ in a detail not shown here. Equal values may be shown once. “Also recorded” adds a separate entry of the source.

Columns and labels:
in vivo = format: in vivo, mice; conditions: plasma, mice, plasma; for Final plasma concentration, individual sample: IP 10 mg/kg, single animal, D=1; for Plasma concentration, Final (individual mouse): single animals
mice = format: in vivo

O=C([O-])C1CCC2(CC1)CC(Nc1ncnc3[nH]c4c(F)cccc4c13)C2.[Na+] (stereo not drawn) [Compound 77, [Na+].[O-]C(=O)C1CCC2(CC(C2)NC=3N=CN=C4NC=5C(F)=CC=CC5C34)CC1]
concentration at 360 min (in vivo; male, CD-1, mouse, po, 30 mg/kg, PO 30 mg/kg, 360 min, read-out: Plasma concentration C (mean)): 4510 ng/mL
concentration at 480 min (in vivo; male, CD-1, mouse, po, 30 mg/kg, PO 30 mg/kg, 480 min, read-out: Plasma concentration C (mean)): 5240 ng/mL
concentration at 1440 min (in vivo; male, CD-1, mouse, po, 30 mg/kg, PO 30 mg/kg, 1440 min, read-out: Plasma concentration C (mean)): 187 ng/mL
AUC (in vivo; male, CD-1, mouse, po, 30 mg/kg p.o., read-out: AUC (converted)): 108 µg·h/mL
Final plasma concentration, individual sample (in vivo; 5 min, listed as Z5090949977, 10 mg/kg): 2415 ng/mL and 2458 ng/mL
Final plasma concentration, individual sample (in vivo; 15 min, listed as Z5090949977, 10 mg/kg): 7952 ng/mL and 6935 ng/mL
Final plasma concentration, individual sample (in vivo; 30 min, listed as Z5090949977, 10 mg/kg): 4477 ng/mL and 7535 ng/mL
Final plasma concentration, individual sample (in vivo; 60 min, listed as Z5090949977, 10 mg/kg): 9306 ng/mL and 9568 ng/mL
Final plasma concentration, individual sample (in vivo; 120 min, listed as Z5090949977, 10 mg/kg): 9975 ng/mL and 654 ng/mL and 8498 ng/mL
Final plasma concentration, individual sample (in vivo; 240 min, listed as Z5090949977, 10 mg/kg): 3566 ng/mL and 4977 ng/mL and 2222 ng/mL
Final plasma concentration, individual sample (in vivo; 360 min, listed as Z5090949977, 10 mg/kg): 2567 ng/mL and 1708 ng/mL
Final plasma concentration, individual sample (in vivo; 480 min, listed as Z5090949977, 10 mg/kg): 872 ng/mL and 500 ng/mL
Final plasma concentration, individual sample (in vivo; 1440 min, listed as Z5090949977, 10 mg/kg): 13.6 ng/mL and 18.4 ng/mL
Plasma concentration, Final (individual mouse) (in vivo; IV 10 mg/kg, 5 min, listed as Z5090949977, 10 mg/kg): 28260 ng/mL and 26240 ng/mL
Plasma concentration, Final (individual mouse) (in vivo; IV 10 mg/kg, 15 min, listed as Z5090949977, 10 mg/kg): 16140 ng/mL and 20380 ng/mL
Plasma concentration, Final (individual mouse) (in vivo; IV 10 mg/kg, 30 min, listed as Z5090949977, 10 mg/kg): 14230 ng/mL and 12830 ng/mL
Plasma concentration, Final (individual mouse) (in vivo; IV 10 mg/kg, 60 min, listed as Z5090949977, 10 mg/kg): 8422 ng/mL and 12040 ng/mL
Plasma concentration, Final (individual mouse) (in vivo; IV 10 mg/kg, 120 min, listed as Z5090949977, 10 mg/kg): 4081 ng/mL and 3418 ng/mL
Plasma concentration, Final (individual mouse) (in vivo; IV 10 mg/kg, 240 min, listed as Z5090949977, 10 mg/kg): 2055 ng/mL and 1818 ng/mL
Plasma concentration, Final (individual mouse) (in vivo; IV 10 mg/kg, 360 min, listed as Z5090949977, 10 mg/kg): 2041 ng/mL and 1884 ng/mL
Plasma concentration, Final (individual mouse) (in vivo; IV 10 mg/kg, 480 min, listed as Z5090949977, 10 mg/kg): 829 ng/mL and 1219 ng/mL and 1675 ng/mL
Plasma concentration, Final (individual mouse) (in vivo; IV 10 mg/kg, 1440 min, listed as Z5090949977, 10 mg/kg): 31.5 ng/mL and 13.7 ng/mL and 84.5 ng/mL
Plasma concentration, Final (individual mouse) (in vivo; PO 30 mg/kg, 5 min, listed as Z5090949977, 30 mg/kg): 2091 ng/mL and 7833 ng/mL and 3112 ng/mL
Plasma concentration, Final (individual mouse) (in vivo; PO 30 mg/kg, 15 min, listed as Z5090949977, 30 mg/kg): 23680 ng/mL and 31270 ng/mL
Plasma concentration, Final (individual mouse) (in vivo; PO 30 mg/kg, 30 min, listed as Z5090949977, 30 mg/kg): 18100 ng/mL and 24020 ng/mL
Plasma concentration, Final (individual mouse) (in vivo; PO 30 mg/kg, 60 min, listed as Z5090949977, 30 mg/kg): 14280 ng/mL and 20060 ng/mL
Plasma concentration, Final (individual mouse) (in vivo; PO 30 mg/kg, 120 min, listed as Z5090949977, 30 mg/kg): 8277 ng/mL and 7588 ng/mL
Plasma concentration, Final (individual mouse) (in vivo; PO 30 mg/kg, 240 min, listed as Z5090949977, 30 mg/kg): 2686 ng/mL and 2897 ng/mL
Plasma concentration, Final (individual mouse) (in vivo; PO 30 mg/kg, 360 min, listed as Z5090949977, 30 mg/kg): 3917 ng/mL and 5212 ng/mL
Plasma concentration, Final (individual mouse) (in vivo; PO 30 mg/kg, 480 min, listed as Z5090949977, 30 mg/kg): 8465 ng/mL and 5117 ng/mL and 2129 ng/mL
Plasma concentration, Final (individual mouse) (in vivo; PO 30 mg/kg, 1440 min, listed as Z5090949977, 30 mg/kg): 154 ng/mL and 78.9 ng/mL and 329 ng/mL
effect on CFA-induced paw edema (mice; 30 mg/kg i.p. daily on four consecutive days): significantly reduced the progression of CFA-induced inflammation; also recorded: significantly slowed the development of paw edema
reduction of paw thickness versus the control group (mice; 30 mg/kg i.p. daily on four consecutive days after CFA): up to 20%
Thickness D1 %BL (mice; 77 30 mg/kg, CFA day 1, 1 h after dosing, % of CFA D1 thickness, individual mice 6-10 and Average, 30 mg/kg): 92.0% and 93.2% and 87.6% and 98.7% and 95.8%
Thickness D1 (mice; 77 30 mg/kg, CFA day 1, 1 h after dosing, individual mice 6-10 and Average, 30 mg/kg): 3.58 and 3.3 and 3.4 and 3.89 and 3.68
Thickness D2 (1h) %BL (mice; 77 30 mg/kg, CFA day 2, 1 h, % of CFA D1 thickness, individual mice 6-10 and Average, 30 mg/kg): 115.7% and 120.9% and 116.5% and 109.1% and 119.8%
Thickness D2 (1h) (mice; 77 30 mg/kg, CFA day 2, 1 h, individual mice 6-10 and Average, 30 mg/kg): 4.5 and 4.28 and 4.52 and 4.3 and 4.6
Thickness BL D2 (mice; 77 30 mg/kg, CFA day 2 before that day's dose (vehicle head: CFA D2), individual mice 6-10 and Average, 30 mg/kg): 4.81 and 4.39 and 4.69 and 4.16 and 4.59
Thickness BL D2 % (mice; 77 30 mg/kg, CFA day 2 before that day's dose, % of CFA D1 thickness, individual mice 6-10 and Average, 30 mg/kg): 123.7% and 124.0% and 120.9% and 105.6% and 119.5%
Thickness D3 (1h) % (mice; 77 30 mg/kg, CFA day 3, 1 h, % of CFA D1 thickness, individual mice 6-10 and Average, 30 mg/kg): 128.5% and 117.8% and 103.9% and 101.5% and 122.4%
Thickness D3 (1h) (mice; 77 30 mg/kg, CFA day 3, 1 h, individual mice 6-10 and Average, 30 mg/kg): 5 and 4.17 and 4.03 and 4 and 4.7
Thickness CFA D3 % (mice; 77 30 mg/kg, CFA day 3 before that day's dose, % of CFA D1 thickness, individual mice 6-10 and Average, 30 mg/kg): 131.9% and 121.8% and 110.3% and 105.1% and 128.9%
Thickness CFA D3 (mice; 77 30 mg/kg, CFA day 3 before that day's dose, individual mice 6-10 and Average, 30 mg/kg): 5.13 and 4.31 and 4.28 and 4.14 and 4.95
Thickness D4 (1h) % (mice; 77 30 mg/kg, CFA day 4, 1 h, % of CFA D1 thickness, individual mice 6-10 and Average, 30 mg/kg): 113.1% and 107.3% and 103.1% and 103.6% and 104.7%
Thickness D4 (1h) (mice; 77 30 mg/kg, CFA day 4, 1 h, individual mice 6-10 and Average, 30 mg/kg): 4.4 and 3.8 and 4 and 4.08 and 4.02
Thickness CFA D4 % (mice; 77 30 mg/kg, CFA day 4 before that day's dose, % of CFA D1 thickness, individual mice 6-10 and Average, 30 mg/kg): 118.3% and 110.2% and 107.5% and 106.1% and 109.1%
Thickness CFA D4 (mice; 77 30 mg/kg, CFA day 4 before that day's dose, individual mice 6-10 and Average, 30 mg/kg): 4.6 and 3.9 and 4.17 and 4.18 and 4.19
Thickness CFA D5 % (mice; 77 30 mg/kg, CFA day 5, % of CFA D1 thickness, individual mice 6-10 and Average, 30 mg/kg): 100.0% and 107.3% and 97.4% and 90.6% and 104.2%
Thickness CFA D5 (mice; 77 30 mg/kg, CFA day 5, individual mice 6-10 and Average, 30 mg/kg): 3.89 and 3.8 and 3.78 and 3.57 and 4
Thickness CFA D7 % (mice; 77 30 mg/kg, CFA day 7, % of CFA D1 thickness, individual mice 6-10 and Average, 30 mg/kg): 102.8% and 96.0% and 90.2% and 86.0% and 106.8%
Thickness CFA D7 (mice; 77 30 mg/kg, CFA day 7, individual mice 6-10 and Average, 30 mg/kg): 4 and 3.4 and 3.5 and 3.39 and 4.1
